We go through two molecules from patent publication US20130210846A1, “USE OF NOVEL PAN-CDK INHIBITORS FOR TREATING TUMORS” (BAYER INTELLECTUAL PROPERTY GMBH, priority 2010, published 2013).

For one test, the system named is MDA-MB 231. Kind of test: Proliferation assay MDA-MB 231. The class given is cell-based. As to conditions: Homo sapiens, 96 h; MDA-MB 231, estrogen receptor-negative mamma carcinoma; 4 days, crystal violet. The protocol: (§1) Cultivated human tumor cells (originally obtained from ATCC, HeLa-MaTu and HeLa-MaTu-ADR, originally obtained from Epo GmbH, Berlin, Germany) were plated at a density of 1000 to 5000 cells/measuring point, depending on the growth rate of the cell line, in a 96-well multititer plate in 200 μl of growth medium (DMEM/HAMS F12, 2 mM L-glutamine, 10% fetal calf serum). After 24 hours the cells of one plate (zero-point plate) were stained with crystal violet (see below), whereas the medium of the other plates was replaced with fresh culture medium (200 μl), to which the test substances had been added at various concentrations (0 μM, and in the range 0.01-30 μM; the final concentration of the solvent dimethyl sulfoxide was 0.5%). The cells were incubated for 4 days in the presence of the test substances. Cellular proliferation was determined by staining the cells with crystal violet: the cells were fixed by adding 20 μl/measuring point of an 11% glutaraldehyde solution for 15 min at room temperature. […] The extinction was determined photometrically at a wavelength of 595 nm. The percentage change in cell growth was calculated by standardization of the measured values to the extinction values of the zero-point plate (=0%) and the extinction of the untreated (0 μM) cells (=100%). […] The IC50 values were determined by means of a 4-parameter fit using the company's own software. […]

Another test has as its system OVCAR-8. The test can be described thus: Proliferation assay OVCAR-8. The class given is cell-based. As to conditions: Homo sapiens, 96 h; OVCAR-8, ovarial carcinoma; 4 days, crystal violet. The protocol: as §1
Another test deals with A2780. Kind of test: Proliferation assay A2780. Type of test: cell-based. As to conditions: Homo sapiens, 96 h; A2780, ovarial carcinoma; 4 days, crystal violet. As to the method: as §1
The next test deals with A2780-Cis. The test can be described thus: Proliferation assay A2780-Cis. Type of test: cell-based. As to conditions: Homo sapiens, A2780cis, 96 h, ovarial carcinoma, 4 days, crystal violet. As to the method:
as §1

A further test relates to NCI-H69. Kind of test: Proliferation assay NCI-H69. The note with it: Homo sapiens, 96 h; NCI-H69, small-cell bronchial carcinoma; 4 days, crystal violet. The class given is cell-based. The protocol: as §1
For a further test, the system named is MOLM-13. Kind of test: Proliferation assay MOLM-13. The class given is cell-based. As to conditions: Homo sapiens, 96 h; MOLM-13, leukemia; 4 days, crystal violet. As to the method:
as §1

The test system of test [1] is NCI-H69 human small-cell lung tumor cells. Kind of test: NCI-H69 human small-cell lung tumor model. Type of test: in vivo, female NMRI nude mice. The text has this: (§2) Tumor cells grown in cell culture were implanted subcutaneously in the flank of female or male NMRI nude mice. The treatment was started as soon as the tumors had grown to a size of approx. 20 mm^2 The study was ended as soon as the tumors in one of the groups reached a size of approx. 150 mm^2.
(§3) Vehicle group: treatment with solubilizer (40% PEG400/60% water)
(§4) The studies were designed for determining the initial response of the human tumor model to the treatment with the Exemplary compound 2-SI-2. Tumor growth inhibition in percent (TGI) was either calculated at the end of the studies from the tumor weights (TGITW) using the formula 100×[1−(tumor weight of the treatment group/tumor weight of the vehicle group)], or on the day the vehicle group had to be ended from the tumor areas (TGITA) using the formula 100×[1−(tumor area of the treatment group on the day of the measurement−tumor area of the treatment group prior to treatment)/(tumor area of the vehicle group on the day of the measurement−tumor area of the vehicle group prior to treatment)]. In the case of a tumor growth inhibition of more than 50%, the treatment was considered to have been effective.
Efficacy in the NCI-H69 human small-cell lung tumor model.
NCI-H69 human small-cell lung tumor cells implanted into female NMRI nude mice. […]

The subject of test [2] is NCI-H82 human small-cell lung tumor cells. The test can be described thus: NCI-H82 human small-cell lung tumor model. The class given is in vivo, female NMRI nude mice. As to conditions: NCI-H82; a) 1.7 mg/kg oral 2× per day on 3 successive days, followed by 4 treatment-free days.
Description: as §2, §3, §4
Efficacy in the NCI-H82 human small-cell lung tumor model.
NCI-H82 human small-cell lung tumor cells implanted into female NMRI nude mice.
• a) 0.17 mg/ml of Example 2-SI-2 in 40% (v/v) PEG 400 in water […]

Test [3] relates to A2780-Cis cisplatin-resistant human ovarial tumor cells. Kind of test: A2780-Cis human ovarial tumor model. The class given is in vivo, female NMRI nude mice.
Description: as §2, §3, §4
Efficacy in the A2780-Cis human ovarial tumor model.
Efficacy in the A2780-Cis human ovarial tumor model A2780-Cis cisplatin-resistant human ovarial tumor cells implanted into female NMRI nude mice.
• a) 0.20 mg/ml of Example 2-SI-2 in 40% (v/v) PEG 400 in water • b) 0.15 mg/ml of Example 2-SI-2 in 40% (v/v) PEG 400 in water • c) 0.17 mg/ml of Example 2-SI-2 in 40% (v/v) PEG 400 in water
• a) 2.0 mg/kg (6.0 mg/m^2), 1× per day. • b) 1.5 mg/kg (4.5 mg/m^2), 2× per day on 3 successive days, followed by 4 treatment-free days. • c) 1.7 mg/kg (5.1 mg/m^2), 2× per day on 3 successive days, followed by 4 treatment-free days.

In the case of `C[C@@H](O)[C@@H](C)Oc1nc(Nc2ccc(S(C)(=N)=O)cc2)ncc1C(F)(F)F` (single isomer, unassigned) [Example 2-SI-2], the IC50 in the test with MDA-MB 231 is 16 nM; with OVCAR-8, 14 nM; in the test on A2780 it was 3 nM; with A2780-Cis, 10 nM; with NCI-H69, 37 nM; in the test with MOLM-13 it was 9 nM.

Turning to `C[C@@H](O)[C@@H](C)Oc1nc(Nc2ccc(S(C)(=N)=O)cc2)ncc1C(F)(F)F` (mixture of isomers) [Example 2-SI-2, (RS)—S-(4-{[4-{[(1R,2R)-2-Hydroxy-1-methylpropyl]oxy}-5-(trifluoromethyl)pyrimidin-2-yl]-amino}phenyl)-S-methylsulfoximide], the “TGITA (tumor growth inhibition from tumor areas, measured on the day the vehicle group was ended)” value in test [1] (NCI-H69; a) 2.0 mg/kg oral 1× per day) is listed as 99%. For the same molecule, in [1] (NCI-H69; b) 2.5 mg/kg oral 2× per day on 2 successive days, followed by 5 treatment-free days), the “TGITA (tumor growth inhibition from tumor areas)” value came out at 110%. The “TGITW (tumor growth inhibition from tumor weights)” value is recorded as 86% in test [2]; 85% in test [3] (A2780-Cis; a) 2.0 mg/kg oral 1× per day); 88% in test [3] (A2780-Cis; b) 1.5 mg/kg oral 2× per day on 3 successive days, followed by 4 treatment-free days); 92% in test [3] (A2780-Cis; c) 1.7 mg/kg oral 2× per day on 3 successive days, followed by 4 treatment-free days).

As a reminder, the IC50 is the concentration needed to halve the response being measured. Low readings indicate higher potency, high ones lower potency.
